Laboratory results as given in paper PMC9120017, “Inhibition mechanism of the chloride channel TMEM16A by the pore blocker 1PBC” (Nature Communications, 2022).
Where two headings read alike, the source gives them in different places.

Biological target: T1, mouse TMEM16A mutant T539A (Mus musculus, UniProt Q8BHY3, T539A)
T1 construct: expressed in transfected cells; host or cells: HEK293T
T1 sequence (Q8BHY3 1-960 T539A): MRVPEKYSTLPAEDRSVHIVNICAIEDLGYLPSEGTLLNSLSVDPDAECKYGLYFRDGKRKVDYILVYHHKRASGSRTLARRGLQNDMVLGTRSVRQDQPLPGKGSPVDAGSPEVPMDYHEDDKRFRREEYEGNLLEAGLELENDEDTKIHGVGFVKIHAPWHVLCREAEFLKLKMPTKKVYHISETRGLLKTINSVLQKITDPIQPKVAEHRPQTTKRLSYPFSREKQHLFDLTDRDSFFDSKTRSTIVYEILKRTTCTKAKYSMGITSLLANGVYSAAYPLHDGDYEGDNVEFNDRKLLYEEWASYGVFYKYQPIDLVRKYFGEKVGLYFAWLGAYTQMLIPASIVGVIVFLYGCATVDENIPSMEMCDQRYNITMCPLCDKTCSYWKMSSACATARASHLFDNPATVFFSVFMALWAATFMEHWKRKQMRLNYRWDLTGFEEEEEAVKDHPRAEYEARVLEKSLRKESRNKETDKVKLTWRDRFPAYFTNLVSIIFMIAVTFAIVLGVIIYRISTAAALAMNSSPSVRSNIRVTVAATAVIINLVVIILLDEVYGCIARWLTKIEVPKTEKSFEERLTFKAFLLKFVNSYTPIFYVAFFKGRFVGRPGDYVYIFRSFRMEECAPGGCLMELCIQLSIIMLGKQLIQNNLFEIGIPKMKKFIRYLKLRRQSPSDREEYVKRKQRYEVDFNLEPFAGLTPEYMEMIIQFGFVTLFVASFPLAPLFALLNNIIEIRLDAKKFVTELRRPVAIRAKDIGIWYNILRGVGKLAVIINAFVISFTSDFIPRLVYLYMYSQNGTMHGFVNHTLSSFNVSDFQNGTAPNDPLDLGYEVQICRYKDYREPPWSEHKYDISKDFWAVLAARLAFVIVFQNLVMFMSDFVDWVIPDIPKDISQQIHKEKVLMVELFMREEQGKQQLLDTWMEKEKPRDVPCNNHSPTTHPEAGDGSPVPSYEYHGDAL
Test: Inside-out patch recording of 1PBC block, mutant T539A
Assay type: cell-based
Details: for remaining activity at 100 µM: 100 µM 1PBC
Procedure: HEK293T cells (ATCC CRL-1573) were maintained in Dulbecco’s modified Eagle’s medium (DMEM; Sigma-Aldrich) supplemented with 10 U ml^−1 penicillin, 0.1 mg ml^−1 streptomycin (Sigma-Aldrich), 2 mM L-glutamine (Sigma-Aldrich), and 10% FBS (Sigma-Aldrich) in a humidified atmosphere containing 5% CO2 at 37 °C. HEK293S GnTI^− cells (ATCC CRL-3022) were maintained in HyClone HyCell TransFx-H medium (GE Healthcare) supplemented with 10 U ml^−1 penicillin, 0.1 mg ml^−1 streptomycin, 4 mM L-glutamine, 0.15% poloxamer 188 (Sigma-Aldrich), and 1% FBS in an atmosphere containing 5% CO2 at 185 rpm at 37 °C. The ac splice variant of mouse TMEM16A (UniProt ID: Q8BHY3), mouse TMEM16B (UniProt ID: Q8CFW1), or mouse TMEM16F (UniProt ID: Q6P9J9) bearing a 3C cleavage site, a Venus YFP, a Myc tag, and a Streptavidin-binding peptide (SBP) downstream of the open reading frame in a modified pcDNA3.1 vector (Invitrogen) were used as described previously[21],[31]. Mutations were introduced using a modified QuikChange method[58] and were verified by sequencing.
HEK293T cells were transfected with 3–4 μg DNA per 6 cm Petri dish using the calcium phosphate co-precipitation method and were used within 24–96 h after transfection. Recordings were performed on inside-out patches excised from HEK293T cells expressing the construct of interest. Patch pipettes were pulled from borosilicate glass capillaries (O.D. 1.5 mm, I.D. 0.86 mm, Sutter Instrument) and were fire-polished with a microforge (Narishige) before use. Pipette resistance was typically 3–8 MΩ when filled with the recording solutions detailed below. Seal resistance was typically 4 GΩ or higher. Voltage-clamp recordings were made using Axopatch 200B, Digidata 1550, and Clampex 10.7 (Molecular Devices). Analog signals were filtered with the in-built 4-pole Bessel filter at 10 kHz and were digitized at 20 kHz. Solution exchange was achieved using a gravity-fed system through a theta glass pipette mounted on an ultra-fast piezo-driven stepper (Siskiyou). […] All recordings were performed at 20 °C.
A symmetrical ionic condition was used throughout. Stock solution with Ca^2+-EGTA contained 150 mM NaCl, 5.99 mM Ca(OH)2, 5 mM EGTA, and 10 mM HEPES at pH 7.40. Stock solution with EGTA contained 150 mM NaCl, 5 mM EGTA, and 10 mM HEPES at pH 7.40. Free Ca^2+ concentrations were adjusted by mixing the stock solutions at the required ratios calculated using the WEBMAXC program (http://web.stanford.edu/~cpatton/webmaxcS.htm). Patch pipettes were filled with the stock solution with Ca^2+-EGTA, which has a free Ca^2+ concentration of 1 mM. 1PBC (ChemBridge) stock was reconstituted in anhydrous DMSO (Sigma-Aldrich) at 100 mM and stored at −20 °C. Working solutions with 1PBC were prepared by serial dilution. Unless otherwise stated, experiments were performed at a saturating Ca^2+ concentration as shown in Supplementary Table 1 and the primary data were corrected for current rundown as described previously[21],[25].
Concentration-response relations, obtained from the ratio of the I-V plots before and after the application of the blocker, were fitted to the Hill equation,1 I/Imax=1/1+IC50/[blocker]^h where I/Imax is the normalized current responses, IC50 defines the concentration at which inhibition is at its half-maximum, and h is the Hill coefficient.

An IC50 (0 mV, 2 µM Ca2+) of 14.9 µM, a remaining activity at 3 µM (3 µM 1PBC, +80 mV, saturating Ca2+ (2 µM), read-out: I/Imax) of 77.1% and a remaining activity at 3 µM (3 µM 1PBC, -80 mV, saturating Ca2+ (2 µM), read-out: I/Imax) of 91.4% were found for N#Cc1c(C(F)(F)F)cc(O)n2c1nc1ccccc12 [1PBC] in this work. For the same compound, the remaining activity at 10 µM (10 µM 1PBC, +80 mV, saturating Ca2+ (2 µM), read-out: I/Imax) was 45.4%, the remaining activity at 10 µM (10 µM 1PBC, -80 mV, saturating Ca2+ (2 µM), read-out: I/Imax) was 71.2% and the remaining activity at 30 µM (30 µM 1PBC, +80 mV, saturating Ca2+ (2 µM), read-out: I/Imax) was 23.5%. It also gave a remaining activity at 30 µM (30 µM 1PBC, -80 mV, saturating Ca2+ (2 µM), read-out: I/Imax) of 49.4%, a remaining activity at 100 µM (+80 mV, saturating Ca2+ (2 µM), read-out: I/Imax) of 8.95% and a remaining activity at 100 µM (-80 mV, saturating Ca2+ (2 µM), read-out: I/Imax) of 25%. It also gave a remaining activity at 3 µM (1PBC 3, 0 mV, read-out: fraction of unblocked current) of 85.3%, a remaining activity at 3 µM (1PBC 3, 20 mV, read-out: fraction of unblocked current) of 83.3% and a remaining activity at 3 µM (1PBC 3, 40 mV, read-out: fraction of unblocked current) of 80.1%. It also gave a remaining activity at 3 µM (1PBC 3, 60 mV, read-out: fraction of unblocked current) of 78.3%, a remaining activity at 3 µM (1PBC 3, 80 mV, read-out: fraction of unblocked current) of 77.1% and a remaining activity at 3 µM (1PBC 3, 100 mV, read-out: fraction of unblocked current) of 77.2%. For the same compound, the remaining activity at 3 µM (1PBC 3, 120 mV, read-out: fraction of unblocked current) was 77.7%, the remaining activity at 3 µM (1PBC 3, 140 mV, read-out: fraction of unblocked current) was 79.8% and the remaining activity at 3 µM (1PBC 3, -20 mV, read-out: fraction of unblocked current) was 87.2%. For the same compound, the remaining activity at 3 µM (1PBC 3, -40 mV, read-out: fraction of unblocked current) was 88.4%, the remaining activity at 3 µM (1PBC 3, -60 mV, read-out: fraction of unblocked current) was 90% and the remaining activity at 3 µM (1PBC 3, -80 mV, read-out: fraction of unblocked current) was 91.4%. For the same compound, the remaining activity at 3 µM (1PBC 3, -100 mV, read-out: fraction of unblocked current) was 92.2%, the remaining activity at 3 µM (1PBC 3, -120 mV, read-out: fraction of unblocked current) was 93.2% and the remaining activity at 3 µM (1PBC 3, -140 mV, read-out: fraction of unblocked current) was 93.5%. For the same compound, the remaining activity at 10 µM (1PBC 10, 0 mV, read-out: fraction of unblocked current) was 56.5%, the remaining activity at 10 µM (1PBC 10, 20 mV, read-out: fraction of unblocked current) was 53.9% and the remaining activity at 10 µM (1PBC 10, 40 mV, read-out: fraction of unblocked current) was 50.2%. The remaining activity at 10 µM (1PBC 10, 60 mV, read-out: fraction of unblocked current) was 47.6%, the remaining activity at 10 µM (1PBC 10, 80 mV, read-out: fraction of unblocked current) was 45.4% and the remaining activity at 10 µM (1PBC 10, 100 mV, read-out: fraction of unblocked current) was 44.7%. The remaining activity at 10 µM (1PBC 10, 120 mV, read-out: fraction of unblocked current) was 45.3%, the remaining activity at 10 µM (1PBC 10, 140 mV, read-out: fraction of unblocked current) was 47% and the remaining activity at 10 µM (1PBC 10, -20 mV, read-out: fraction of unblocked current) was 59.1%. The remaining activity at 10 µM (1PBC 10, -40 mV, read-out: fraction of unblocked current) was 63.7%, the remaining activity at 10 µM (1PBC 10, -60 mV, read-out: fraction of unblocked current) was 67.6% and the remaining activity at 10 µM (1PBC 10, -80 mV, read-out: fraction of unblocked current) was 71.2%. For the same compound, the remaining activity at 10 µM (1PBC 10, -100 mV, read-out: fraction of unblocked current) was 73.9%, the remaining activity at 10 µM (1PBC 10, -120 mV, read-out: fraction of unblocked current) was 76.5% and the remaining activity at 10 µM (1PBC 10, -140 mV, read-out: fraction of unblocked current) was 78.6%. For the same compound, the remaining activity at 30 µM (1PBC 30, 0 mV, read-out: fraction of unblocked current) was 34.9%, the remaining activity at 30 µM (1PBC 30, 20 mV, read-out: fraction of unblocked current) was 31% and the remaining activity at 30 µM (1PBC 30, 40 mV, read-out: fraction of unblocked current) was 27.7%. For the same compound, the remaining activity at 30 µM (1PBC 30, 60 mV, read-out: fraction of unblocked current) was 25.4%, the remaining activity at 30 µM (1PBC 30, 80 mV, read-out: fraction of unblocked current) was 23.5% and the remaining activity at 30 µM (1PBC 30, 100 mV, read-out: fraction of unblocked current) was 22.5%. For the same compound, the remaining activity at 30 µM (1PBC 30, 120 mV, read-out: fraction of unblocked current) was 21.8%, the remaining activity at 30 µM (1PBC 30, 140 mV, read-out: fraction of unblocked current) was 22.4% and the remaining activity at 30 µM (1PBC 30, -20 mV, read-out: fraction of unblocked current) was 38.8%. For the same compound, the remaining activity at 30 µM (1PBC 30, -40 mV, read-out: fraction of unblocked current) was 42.4%.
